Laboratory results reported in patent US9102670B2, “Pyrido-, pyrazo- and pyrimido-pyrimidine derivatives as mTOR inhibitors” (KuDOS Pharmaceuticals Limited, priority 2006, dated 2015).
pIC50: −log10 of the molar value.

Each compound was assayed on phosphorylation of Serine 473 in Akt (assay: In Vitro Phospho-Ser473 Akt Assay in MDA-MB-468 cells). Settings: Homo sapiens, MDA-MB-468, read-out: IC50 values against mTOR, phospho-Ser473 Akt assay, MDA-MB-468 cells.
Assay type: cell-based

Row | Structure (SMILES) | pIC50
1 | C[C@H]1COCCN1c1nc(N2CCOC[C@@H]2C)c2ccc(-c3ccc(F)cc3)nc2n1 [Example 1aa] | > 7.00
2 | C[C@H]1COCCN1c1nc(N2CCOC[C@@H]2C)c2ccc(-c3ccc(F)c(C(N)=O)c3)nc2n1 [Example 1ab] | > 6.52
3 | CCCNC(=O)c1cc(-c2ccc3c(N4CCOC[C@@H]4C)nc(N4CCOC[C@@H]4C)nc3n2)ccc1F [Example 1ac] | > 7.00
4 | CNC(=O)c1cc(-c2ccc3c(N4CCOC[C@@H]4C)nc(N4CCOC[C@@H]4C)nc3n2)ccc1F [Example 1ae] | > 7.00
5 | CCNC(=O)c1cc(-c2ccc3c(N4CCOC[C@@H]4C)nc(N4CCOC[C@@H]4C)nc3n2)ccc1F [Example 1af] | > 7.00
6 | C[C@H]1COCCN1c1nc(N2CCOC[C@@H]2C)c2ccc(-c3ccc(F)c(C(=O)NCCO)c3)nc2n1 [Example 1ag] | > 7.00
7 | CC(C)NC(=O)c1cccc(-c2ccc3c(N4CCOC[C@@H]4C)nc(N4CCOC[C@@H]4C)nc3n2)c1 [Example 1al] | > 7.00
8 | C[C@H]1COCCN1c1nc(N2CCOC[C@@H]2C)c2ccc(-c3ccc(S(C)(=O)=O)cc3)nc2n1 [Example 1am] | > 6.52
9 | C[C@H]1COCCN1c1nc(N2CCOC[C@@H]2C)c2ccc(-c3ccc(C(N)=O)cc3)nc2n1 [Example 1ao] | > 6.52
10 | C[C@H]1COCCN1c1nc(N2CCOC[C@@H]2C)c2ccc(-c3cccc(C(N)=O)c3)nc2n1 [Example 1as] | > 7.00
11 | C[C@H]1COCCN1c1nc(N2CCOC[C@@H]2C)c2ccc(-c3cccc(NS(C)(=O)=O)c3)nc2n1 [Example 1at] | > 7.00
12 | C[C@H]1COCCN1c1nc(N2CCOC[C@@H]2C)c2ccc(-c3cc(F)nc(F)c3)nc2n1 [Example 1ay] | > 6.52
13 | COC(=O)c1cccc(-c2ccc3c(N4CCOC[C@@H]4C)nc(N4CCOC[C@@H]4C)nc3n2)c1 [Example 1ba] | > 7.00
14 | COCc1cccc(-c2ccc3c(N4CCOC[C@@H]4C)nc(N4CCOC[C@@H]4C)nc3n2)c1 [Example 1bb] | > 7.00
15 | C[C@H]1COCCN1c1nc(N2CCOC[C@@H]2C)c2ccc(-c3ccc(F)c(CO)c3)nc2n1 [Example 1bc] | > 7.00
16 | C[C@H]1COCCN1c1nc(N2CCOC[C@@H]2C)c2ccc(-c3cccc(S(N)(=O)=O)c3)nc2n1 [Example 1bd] | > 6.52
17 | COCCNC(=O)c1cccc(-c2ccc3c(N4CCOC[C@@H]4C)nc(N4CCOC[C@@H]4C)nc3n2)c1 [Example 1be] | > 7.00
18 | COC(=O)c1cc(-c2ccc3c(N4CCOC[C@@H]4C)nc(N4CCOC[C@@H]4C)nc3n2)ccc1OC [Example 1bg] | > 7.00
19 | C[C@H]1COCCN1c1nc(N2CCOC[C@@H]2C)c2ccc(-c3ccc(F)c(NS(C)(=O)=O)c3)nc2n1 [Example 1bk] | > 6.52

Row | Structure (SMILES) | pIC50
20 | C[C@H]1COCCN1c1nc(N2CCOC[C@@H]2C)c2ccc(-c3ccc(C#N)cc3)nc2n1 [Example 1bl] | > 7.00
21 | C[C@H]1COCCN1c1nc(N2CCOC[C@@H]2C)c2ccc(-c3ccc4[nH]ccc4c3)nc2n1 [Example 1bm] | > 7.00
22 | COc1ccc(-c2ccc3c(N4CCOC[C@@H]4C)nc(N4CCOC[C@@H]4C)nc3n2)cc1 [Example 1bo] | > 6.52
23 | C[C@H]1COCCN1c1nc(N2CCOC[C@@H]2C)c2ccc(-c3ccc(Cl)cc3)nc2n1 [Example 1bp] | > 6.52
24 | Cc1cccc(-c2ccc3c(N4CCOC[C@@H]4C)nc(N4CCOC[C@@H]4C)nc3n2)c1 [Example 1br] | > 7.00
25 | COc1ccc(-c2ccc3c(N4CCOC[C@@H]4C)nc(N4CCOC[C@@H]4C)nc3n2)cc1F [Example 1bs] | > 7.00
26 | C[C@H]1COCCN1c1nc(N2CCOC[C@@H]2C)c2ccc(-c3ccoc3)nc2n1 [Example 1bv] | > 7.00
27 | C[C@@H]1CN(c2nc(N3CCOC[C@@H]3C)c3ccc(-c4cccc(CO)c4)nc3n2)C[C@H](C)O1 [Example 1bx] | > 6.52
28 | C[C@@H]1CN(c2nc(N3CCOC[C@@H]3C)c3ccc(-c4ccc(CO)cc4)nc3n2)C[C@H](C)O1 [Example 1by] | > 6.52
29 | C[C@@H]1CN(c2nc(N3CCOC[C@@H]3C)c3ccc(-c4cccc(O)c4)nc3n2)C[C@H](C)O1 [Example 1bz] | > 7.00
30 | C[C@@H]1CN(c2nc(N3CCOC[C@@H]3C)c3ccc(-c4ccoc4)nc3n2)C[C@H](C)O1 [Example 1cf] | > 6.52
31 | C[C@@H]1CN(c2nc(N3CCOC[C@@H]3C)c3ccc(-c4ccc(O)cc4)nc3n2)C[C@H](C)O1 [Example 1cg] | > 7.00
32 | C[C@@H]1CN(c2nc(N3CCOC[C@@H]3C)c3ccc(-c4ccc([N+](=O)[O-])cc4)nc3n2)C[C@H](C)O1 [Example 1ci] | > 6.52
33 | COc1ccc(-c2ccc3c(N4CCOC[C@@H]4C)nc(N4C[C@@H](C)O[C@@H](C)C4)nc3n2)cc1 [Example 1cj] | > 6.52
34 | CNC(=O)c1ccc(-c2ccc3c(N4CCOC[C@@H]4C)nc(N4CCOC[C@@H]4C)nc3n2)cc1F [Example 1cv] | > 6.52
35 | C[C@H]1COCCN1c1nc(N2CCOC[C@@H]2C)c2ccc(-c3ccccc3)nc2n1 [Example 1d] | > 7.00
36 | C[C@H]1COCCN1c1nc(N2CCOC[C@@H]2C)c2ccc(-c3ccc(O)cc3)nc2n1 [Example 1e] | > 7.00
37 | Cc1ccc(-c2ccc3c(N4CCOC[C@@H]4C)nc(N4CCOC[C@@H]4C)nc3n2)cc1 [Example 1f] | > 7.00
38 | C[C@H]1COCCN1c1nc(N2CCOC[C@@H]2C)c2ccc(-c3ccc(CO)cc3)nc2n1 [Example 1g] | > 7.00

Row | Structure (SMILES) | pIC50
39 | C[C@H]1COCCN1c1nc(N2CCOC[C@@H]2C)c2ccc(-c3cccc(O)c3)nc2n1 [Example 1h] | > 7.00
40 | C[C@H]1COCCN1c1nc(N2CCOC[C@@H]2C)c2ccc(-c3cccc(CO)c3)nc2n1 [Example 1i] | > 7.00
41 | C[C@@H]1CN(c2nc(N3CCOC[C@@H]3C)c3ccc(-c4ccsc4)nc3n2)C[C@H](C)O1 [Example 1k] | > 7.00
42 | COc1ccc(-c2ccc3c(N4CCOC[C@@H]4C)nc(N4CCOCC4)nc3n2)cc1CO [Example 1l] | > 7.00
43 | C[C@H]1COCCN1c1nc(N2CCOC[C@@H]2C)c2ccc(-c3cccnc3F)nc2n1 [Example 1p] | > 6.52
44 | C[C@H]1COCCN1c1nc(N2CCOC[C@@H]2C)c2ccc(-c3ccc(N4CCOCC4)nc3)nc2n1 [Example 1q] | > 6.52
45 | C[C@H]1COCCN1c1nc(N2CCOC[C@@H]2C)c2ccc(-c3cnn(C)c3)nc2n1 [Example 1s] | > 7.00
46 | C[C@H]1COCCN1c1nc(N2CCOC[C@@H]2C)c2ccc(-c3ccc(N)nc3)nc2n1 [Example 1u] | > 7.00
47 | C[C@H]1COCCN1c1nc(N2CCCCC2CO)nc2nc(-c3cccc(C(N)=O)c3)ccc12 (stereo partly drawn) [Example 2f] | > 6.52
48 | C[C@H]1COCCN1c1nc(N2CCCCC2CO)nc2nc(-c3ccc(N)nc3)ccc12 (stereo partly drawn) [Example 2g] | > 6.52
49 | C[C@H]1COCCN1c1nc(N2CCOC[C@@H]2C)c2ccc(-c3cccc(C(=O)Nc4cc[nH]n4)c3)nc2n1 [Example 3a] | > 6.52
50 | CNC(=O)c1cc(-c2ccc3c(N4CCOC[C@@H]4C)nc(N4CCOC[C@@H]4C)nc3n2)ccc1OC [Example 3ad] | > 7.00
51 | C[C@H]1COCCN1c1nc(N2CCOC[C@@H]2C)c2ccc(-c3cccc(C(=O)NCCF)c3)nc2n1 [Example 3e] | > 6.52
52 | C[C@H]1COCCN1c1nc(N2CCOC[C@@H]2C)c2ccc(-c3cccc(C(=O)NC4CCOCC4)c3)nc2n1 [Example 3i] | > 7.00
53 | C[C@H]1COCCN1c1nc(N2CCOC[C@@H]2C)c2ccc(-c3cccc(C(=O)NCC(F)F)c3)nc2n1 [Example 3l] | > 7.00
54 | CON(C)C(=O)c1cc(-c2ccc3c(N4CCOC[C@@H]4C)nc(N4CCOC[C@@H]4C)nc3n2)ccc1F [Example 3y] | > 7.00
55 | CNCc1ccc(-c2ccc3c(N4CCOC[C@@H]4C)nc(N4CCOC[C@@H]4C)nc3n2)cc1 [Example 4a] | > 7.00
56 | COCCNCc1cc(-c2ccc3c(N4CCOC[C@@H]4C)nc(N4CCOC[C@@H]4C)nc3n2)ccc1F [Example 4aa] | > 6.52

Same assay, conditions: Homo sapiens, MDA-MB-468, read-out: IC50 values against mTOR, phospho-Ser473 Akt assay, MDA-MB-468 cells, upper bound

Row | Structure (SMILES) | pIC50
57 | C[C@H]1COCCN1c1nc(N2CCOC[C@@H]2C)c2ccc(-c3ccc(F)nc3)nc2n1 [Example 1ah] | > 6.00
58 | C[C@H]1COCCN1c1nc(N2CCOC[C@@H]2C)c2ccc(-c3ccncc3)nc2n1 [Example 1ar] | > 6.00
59 | C[C@H]1COCCN1c1nc(N2CCOC[C@@H]2C)c2ccc(-c3ccnc(F)c3)nc2n1 [Example 1au] | > 6.00
60 | C[C@H]1COCCN1c1nc(N2CCOC[C@@H]2C)c2ccc(-c3cccc(C#N)c3)nc2n1 [Example 1aw] | > 6.00
61 | C[C@H]1COCCN1c1nc(N2CCOC[C@@H]2C)c2ccc(-c3cccc(C(=O)N4CCN(C)CC4)c3)nc2n1 [Example 1bf] | > 6.00
62 | C[C@H]1COCCN1c1nc(N2CCOC[C@@H]2C)c2ccc(-c3cccnc3)nc2n1 [Example 1bu] | > 6.00
63 | C[C@@H]1CN(c2nc(N3CCOC[C@@H]3C)c3ccc(-c4ccncc4)nc3n2)C[C@H](C)O1 [Example 1ce] | > 6.00
64 | C[C@H]1COCCN1c1nc(N2CCOC[C@@H]2C)c2ccc(-c3ccc4nc[nH]c(=O)c4c3)nc2n1 [Example 1cl] | > 6.00
65 | C[C@H]1COCCN1c1nc(N2CCCC(CO)C2)nc2nc(-c3cccc(C(N)=O)c3)ccc12 (stereo partly drawn) [Example 2d] | > 6.00
66 | C[C@H]1COCCN1c1nc(N2CCC(c3ccncc3)CC2)nc2nc(-c3ccc(N)nc3)ccc12 [Example 2e] | > 6.00
67 | C[C@H]1COCCN1c1nc(N2CCC(CO)CC2)nc2nc(-c3cccc(C(N)=O)c3)ccc12 [Example 2h] | > 6.00
68 | C[C@H]1COCCN1c1nc(N2CCC(CCO)CC2)nc2nc(-c3ccc(N)nc3)ccc12 [Example 2j] | > 6.00
69 | C[C@H]1COCCN1c1nc(N2CCOC[C@@H]2C)c2ccc(-c3cccc(C(=O)NCC(F)(F)F)c3)nc2n1 [Example 3f] | > 6.00
70 | C[C@H]1COCCN1c1nc(N2CCOC[C@@H]2C)c2ccc(-c3cccc(C(=O)N4CC[C@@H](O)C4)c3)nc2n1 [Example 3g] | > 6.00
71 | CCN(C)C(=O)c1cc(-c2ccc3c(N4CCOC[C@@H]4C)nc(N4CCOC[C@@H]4C)nc3n2)ccc1OC [Example 3u] | > 6.00

Same assay, conditions: Homo sapiens; phospho-Ser473 Akt assay, MDA-MB-468 cells, upper bound; read-out: IC50 values against mTOR

Row | Structure (SMILES) | pIC50
72 | C[C@H]1COCCN1c1nc(N2CCOC[C@@H]2C)c2ccc(-c3cccc(Cl)n3)nc2n1 [Example 1v] | > 6.00
